In patent publication US9999222B2, “Herbicidal combination comprising azines” (BASF SE, priority 2014, dated 2018):
Read-outs that look alike come from different tables or passages of the source.

Tests used:
Experiment in all cases: Greenhouse test, pre-emergence treatment
ABUTH = assay type: in vivo, Abutilon theophrasti; conditions: Abutilon theophrasti, 480 h
Summary of the method: (§1)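 Seeds were sown in loamy sand with approximately 3.0% humus, then sprayed at once with actives suspended or emulsified in water. Pots were watered, hooded until rooting, held at 10-25° C. or 20-35° C. by species for 2 to 4 weeks, and scored 0 (no damage) to 100 (no emergence/complete destruction).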

ALOMY = assay type: in vivo, Alopecurus myosuroides; conditions: Alopecurus myosuroides, pre-emergence, 480 h, pre-emergence, read-out: observed % activity 20 DAT; for inhibition at 50 g/ha: use rate 50 g ai/ha; for inhibition at 100 g/ha: use rate 100 g ai/ha
Text: (§2) The culture containers used were plastic flowerpots containing loamy sand with approximately 3.0% of humus as the substrate. The seeds of the test plants were sown separately for each species.
(§3) For the pre-emergence treatment, the active ingredients, which had been suspended or emulsified in water, were applied directly after sowing by means of finely distributing nozzles. The containers were irrigated gently to promote germination and growth and subsequently covered with transparent plastic hoods until the plants had rooted. This cover caused uniform germination of the test plants, unless this had been impaired by the active ingredients.
(§4) Depending on the species, the plants were kept at 10-25° C. or 20-35° C., respectively.
(§5) The test period extended over 2 to 4 weeks. During this time, the plants were tended, and their response to the individual treatments was evaluated.
(§6) Evaluation was carried out using a scale from 0 to 100. 100 means no emergence of the plants, or complete destruction of at least the aerial moieties, and 0 means no damage, or normal course of growth. A moderate herbicidal activity is given at values of at least 60, a good herbicidal activity is given at values of at least 70, and a very good herbicidal activity is given at values of at least 85.
(§7) The respective stated components a and b, and if appropriate, c were formulated as a 10% by weight strength emulsion concentrate and, with addition of the amount of solvent system, introduced into the spray liquor used for applying the active compound.
(§8) In the examples, the solvent used was water.
(§9) In the examples below, using the method of S. R. Colby (1967) “Calculating synergistic and antagonistic responses of herbicide combinations”, Weeds 15, p. 22ff., the value E, which is expected if the activity of the individual active compounds is only additive, was calculated. E=X+Y−(X·Y/100) where • X=percent activity using active compound a at an application rate A; • Y=percent activity using active compound b at an application rate B; • E=expected activity (in %) by a+b at application rates A+B.
(§10) If the value found experimentally is higher than the value E calculated according to Colby, a synergistic effect is present.

APESV = assay type: in vivo, Apera spica-venti; conditions: Apera spica-venti, 480 h, read-out: observed % activity 20 DAT
Text: as §2, §3, §4, §5, §6, §7, §8, §9, §10

ECHCG = assay type: in vivo, Echinocloa crus-galli; conditions: Echinochloa crus-galli, 480 h, ECHCG, use rate 50 g ai/ha, 20 DAT, read-out: observed % activity 20 DAT
Text: as §2, §3, §4, §5, §6, §7, §8, §9, §10

POLCO = assay type: in vivo, Polygonum convolvulus; conditions: Fallopia convolvulus, pre-emergence, 480 h; for inhibition at 50 g/ha: use rate 50 g ai/ha
Summary of the method: as §1

ANTAR = assay type: in vivo; conditions: Anthemis arvensis, 480 h, 20 DAT, read-out: observed % activity
Summary of the method: as §1

COMBE = assay type: in vivo, Commelina benghalensis; conditions: Commelina benghalensis, pre-emergence, 480 h
Summary of the method: as §1

EPHHL = assay type: in vivo, Euphorbia heterophylla; conditions: Euphorbia heterophylla, pre-emergence, 480 h, read-out: observed % activity 20 DAT
Summary of the method: as §1

GERPU = assay type: in vivo, Geranium pusillum; conditions: Geranium pusillum, pre-emergence, 480 h
Summary of the method: as §1

KCHSC = assay type: in vivo, Kochia scoparia; conditions: Bassia scoparia, pre-emergence, 480 h, pre-emergence, read-out: observed % activity 20 DAT
Summary of the method: as §1

LOLMU = assay type: in vivo, Lolium multiflorum; conditions: Lolium multiflorum, pre-emergence, 480 h, pre-emergence, read-out: observed % activity 20 DAT
Text: as §2, §3, §4, §5, §6, §7, §8, §9, §10

IPOHE = assay type: in vivo, Ipomoea hederacea; conditions: Ipomoea hederacea, 480 h, IPOHE, individual, read-out: observed % activity 20 DAT
Summary of the method: as §1

SIDRH = assay type: in vivo, Sida rhombifolia; conditions: Sida rhombifolia, pre-emergence, 480 h
Summary of the method: as §1

CENCY = assay type: in vivo; conditions: 480 h, individual, read-out: observed % activity 20 DAT
[1] = 20 g ai/ha, 20 DAT, read-out: observed % activity
[2] = 40 g ai/ha, 20 DAT, read-out: observed % activity
[3] = read-out: observed % activity 20 DAT

COc1c(Cl)ccc(Cl)c1C(=O)O [DICAMBA, dicamba]
inhibition at 20 g/ha (ABUTH; [1]): 60% | inhibition at 40 g/ha (ABUTH; [2]): 80% | inhibition at 35 g/ha (ABUTH; ABUTH, individual, use rate 35 g ai/ha, read-out: observed % activity 20 DAT): 0% | inhibition at 70 g/ha (ABUTH; ABUTH, individual, use rate 70 g ai/ha, read-out: observed % activity 20 DAT): 20% | inhibition at 50 g/ha (ALOMY; ALOMY, 20 DAT): 20% | inhibition at 100 g/ha (ALOMY; ALOMY, 20 DAT): 40% | inhibition at 50 g/ha (ALOMY): 20% | inhibition at 100 g/ha (ALOMY): 40% | inhibition at 100 g/ha (APESV): 35% | inhibition at 50 g/ha (ECHCG): 0% | inhibition at 20 g/ha (POLCO; [1]): 35% | inhibition at 40 g/ha (POLCO; [2]): 90% | inhibition at 50 g/ha (POLCO; POLCO, 20 DAT, read-out: observed % activity 20 DAT): 40% | inhibition at 50 g/ha (POLCO; [3]): 40% | inhibition at 100 g/ha (POLCO; use rate 100 g ai/ha, read-out: observed % activity 20 DAT): 60% | inhibition at 20 g/ha (ANTAR; 20 g ai/ha): 30% | inhibition at 40 g/ha (ANTAR; 40 g ai/ha): 30% | inhibition at 20 g/ha (COMBE; [1]): 45% | inhibition at 40 g/ha (COMBE; [2]): 65% | inhibition at 70 g/ha (COMBE; COMBE, individual, use rate 70 g ai/ha, read-out: observed % activity 20 DAT): 50% | inhibition at 35 g/ha (COMBE; [3]): 15% | inhibition at 35 g/ha (EPHHL): 20% | inhibition at 20 g/ha (GERPU; [1]): 20% | inhibition at 40 g/ha (GERPU; [2]): 85% | inhibition at 35 g/ha (GERPU; GERPU, individual, use rate 35 g ai/ha, read-out: observed % activity 20 DAT): 40% | inhibition at 100 g/ha (KCHSC; use rate 100 g ai/ha): 90% | inhibition at 35 g/ha (KCHSC): 75% | inhibition at 50 g/ha (KCHSC): 85% | inhibition at 70 g/ha (KCHSC): 75% | inhibition at 50 g/ha (LOLMU; LOLMU, use rate 50 g ai/ha, 20 DAT): 40% | inhibition at 100 g/ha (LOLMU): 45% | inhibition at 35 g/ha (IPOHE; use rate 35 g ai/ha): 40% | inhibition at 70 g/ha (IPOHE; use rate 70 g ai/ha): 40% | inhibition at 20 g/ha (SIDRH; [1]): 45% | inhibition at 40 g/ha (SIDRH; [2]): 80% | inhibition at 35 g/ha (SIDRH; SIDRH, individual, use rate 35 g ai/ha, read-out: observed % activity 20 DAT): 20% | inhibition at 70 g/ha (SIDRH; [3]): 15% | inhibition at 35 g/ha (CENCY; use rate 35 g ai/ha): 0% | inhibition at 70 g/ha (CENCY; use rate 70 g ai/ha): 30%
